Assay results from ChEMBL document CHEMBL1201862, “PubChem BioAssay data set” (2004).
Active and inactive are the calls of the source.

Assays:
Cytochrome P450 2C19 = Cytochrome P450 2C19 (Homo sapiens, UniProt P33261); test: Cytochrome panel assay with activity outcomes. Panel member name: p450-cyp2c19 Compounds with AC50 equal or less than 10 uM are considered active; assay type: functional; settings: read-out: AC50
Cytochrome P450 2D6 = Cytochrome P450 2D6 (Homo sapiens, UniProt P10635);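 further: CYP2D6 member of a cytochrome P450 panel assay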
Cytochrome P450 2D6, sequence (P10635 whole entry): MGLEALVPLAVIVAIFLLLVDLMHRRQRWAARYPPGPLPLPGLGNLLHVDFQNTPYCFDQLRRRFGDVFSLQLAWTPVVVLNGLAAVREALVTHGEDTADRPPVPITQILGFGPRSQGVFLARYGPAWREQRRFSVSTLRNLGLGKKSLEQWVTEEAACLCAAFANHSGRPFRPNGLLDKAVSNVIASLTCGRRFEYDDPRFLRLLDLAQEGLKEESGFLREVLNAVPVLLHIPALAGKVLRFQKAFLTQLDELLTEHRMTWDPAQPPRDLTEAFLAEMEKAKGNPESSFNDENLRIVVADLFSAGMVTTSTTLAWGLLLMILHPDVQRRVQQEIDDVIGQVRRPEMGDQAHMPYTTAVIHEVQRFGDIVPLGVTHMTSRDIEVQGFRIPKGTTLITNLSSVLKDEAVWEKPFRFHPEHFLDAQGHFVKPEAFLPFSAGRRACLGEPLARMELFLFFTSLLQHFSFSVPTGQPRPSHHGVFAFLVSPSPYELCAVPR

[1] = A Cell Based Secondary Assay To Explore Cytotoxicity of Compounds that Sensitize Mycobacterium Tuberculosis to Beta-Lactam Antibiotics.; assay type: functional
[2] = target: T1, Rac GTPase-activating protein 1 (Homo sapiens, UniProt Q9H0H5); test: blockers of MgcRacGAP-driven Rac1 GTP hydrolysis – biochemical, ADP Hunter fluorescence, primary and confirmatory, confirmation (AID 624330); assay type: functional
T1 sequence (Q9H0H5 whole entry): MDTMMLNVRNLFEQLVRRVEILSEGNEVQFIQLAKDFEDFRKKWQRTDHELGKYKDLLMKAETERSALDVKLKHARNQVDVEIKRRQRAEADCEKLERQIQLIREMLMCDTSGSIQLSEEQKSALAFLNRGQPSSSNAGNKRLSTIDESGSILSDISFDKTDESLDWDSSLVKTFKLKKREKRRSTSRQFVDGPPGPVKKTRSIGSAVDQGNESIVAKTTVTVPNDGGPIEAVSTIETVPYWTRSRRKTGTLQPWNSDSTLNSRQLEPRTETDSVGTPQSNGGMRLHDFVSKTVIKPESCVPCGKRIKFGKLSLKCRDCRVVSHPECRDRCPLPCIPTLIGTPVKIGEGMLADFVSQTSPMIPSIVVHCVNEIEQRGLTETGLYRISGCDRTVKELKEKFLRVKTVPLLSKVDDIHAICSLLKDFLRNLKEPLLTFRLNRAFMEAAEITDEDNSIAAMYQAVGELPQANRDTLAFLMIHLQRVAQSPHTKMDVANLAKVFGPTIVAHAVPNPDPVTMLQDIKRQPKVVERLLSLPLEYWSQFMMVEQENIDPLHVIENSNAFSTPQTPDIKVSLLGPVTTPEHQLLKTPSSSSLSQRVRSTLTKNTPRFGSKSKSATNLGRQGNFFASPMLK

[3] = viability loss in HeLa cells – cytotoxicity control for MgcRacGAP inhibitor project, dose response (AID 624300); assay type: functional
[4] = viability loss in human Jurkat cells – cell-based, luminescence, cytotoxicity control for P. falciparum gametocyte viability project, dose response (AID 1117277); assay type: functional;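 further: potency reflects loss of cellular ATP meaning fewer viable cells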
[5] = viability inhibitors of stage V gametocytes – luminescence, dose response (AID 1117278); assay type: functional, cell-based;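 further: gametocytes exposed to compound for 24 hours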
[6] = target: T2, Calpain-2 catalytic subunit (Sus scrofa, UniProt P43367); test: m-calpain protease blockers, concentration series – biochemical, fluorogenic peptide substrate, dose response (AID 1420); assay type: functional
T2 sequence (P43367 whole entry): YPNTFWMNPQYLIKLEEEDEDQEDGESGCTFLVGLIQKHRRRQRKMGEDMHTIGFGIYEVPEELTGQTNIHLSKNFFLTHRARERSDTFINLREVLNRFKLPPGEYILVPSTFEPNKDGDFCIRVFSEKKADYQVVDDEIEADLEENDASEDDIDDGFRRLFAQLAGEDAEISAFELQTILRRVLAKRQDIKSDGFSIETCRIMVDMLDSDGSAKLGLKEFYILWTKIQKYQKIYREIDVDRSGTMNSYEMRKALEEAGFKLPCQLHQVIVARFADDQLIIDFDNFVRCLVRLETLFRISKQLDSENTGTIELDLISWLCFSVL

[7] = Trypanosoma cruzi growth suppression in host cells – NIH3T3 host cells, beta-gal luminescence, confirmation (AID 2044); assay type: functional, cell-based;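 further: intracellular parasites grown in NIH/3T3 mouse fibroblasts as host cells; luminescent beta-galactosidase reporter signal from transgenic T. cruzi replicating inside host cells; inhibitors lower the luminescence signal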
[8] = NIH3T3 cell viability loss – ATP luminescence, mouse fibroblasts, counter-screen, dose response (AID 2010); assay type: functional, cell-based;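 further: cells exposed to compound for about 90 hours before reading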
[9] = HIV-1 Vif–A3G interaction blockers – biochemical, TR-FRET, GST-Vif 1-94, biotin-A3G peptide, dose response retest, primary screen (AID 1117319); assay type: functional;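 further: TR-FRET signal of purified GST-Vif binding a biotinylated A3G peptide; inhibitors lower the FRET signal by blocking Vif and A3G binding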
H9c2 = test: cells; assay type: functional, cell-based; settings: Rattus norvegicus, H9c2, Myocardium;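 further: confirmatory concentration-response retest of ultra-high-throughput screening hits for modulation of myocardial damage; cell death induced by hydrogen peroxide oxidative stress; compound pretreatment for 60 min then peroxide exposure for 2 h; potency is for protecting the cells against peroxide damage rather than for killing them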

Cytochrome P450 2C19, sequence (P33261 whole entry): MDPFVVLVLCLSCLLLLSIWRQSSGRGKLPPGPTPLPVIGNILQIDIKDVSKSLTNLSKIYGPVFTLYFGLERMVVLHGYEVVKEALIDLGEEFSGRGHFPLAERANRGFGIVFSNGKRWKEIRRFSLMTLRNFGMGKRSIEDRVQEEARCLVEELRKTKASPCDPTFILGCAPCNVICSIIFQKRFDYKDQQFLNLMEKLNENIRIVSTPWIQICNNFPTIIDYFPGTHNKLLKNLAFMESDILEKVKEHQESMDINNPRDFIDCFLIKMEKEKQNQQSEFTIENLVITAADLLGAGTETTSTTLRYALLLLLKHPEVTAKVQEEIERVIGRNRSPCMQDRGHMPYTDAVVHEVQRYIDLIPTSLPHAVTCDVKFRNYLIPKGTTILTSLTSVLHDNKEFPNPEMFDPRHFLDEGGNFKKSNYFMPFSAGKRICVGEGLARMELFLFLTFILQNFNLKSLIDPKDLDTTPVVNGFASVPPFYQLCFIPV

Cc1[nH]c2c(C)cccc2c1CCNC(=O)c1ccc2c(c1[N+](=O)[O-])C(=O)c1ccccc1C2=O
AC50 (Cytochrome P450 2C19): 0.398 µM (inconclusive) | AC50 (Cytochrome P450 2D6): 2 µM (inconclusive) | CC50 [1]: 17.2 µM (active)

Cc1ccc(CN2CCN(Cc3ccccc3C(F)(F)F)CC2)cc1
IC50 [2]: 40.4 µM (active) | CC50 [3]: 100 µM (active)

C1CCN(CCCNC2C3CC4CC(C3)CC2C4)C1 (centres undefined)
IC50 [4]: > 83.3 µM (inactive) | IC50 [5]: > 109 µM (inactive)

CCS(=O)(=O)NCC(c1cccnc1)N1CCN(c2ccc(OC)cc2)CC1 (centres undefined)
IC50 [6]: 24.7 µM (not active) | EC50 [7]: 0.916 µM (active) | EC50 [8]: 22 µM (active)

Oc1nc(-c2ccccc2Cl)nc2c1sc(=S)n2-c1ccccc1
IC50 [6]: 41.7 µM (not active)

COc1ccc(CN2CCN(Cc3ccccc3)CC2)c(OC)c1
IC50 [4]: > 83.3 µM (inactive) | IC50 [5]: > 109 µM (inactive)

Cc1ccc(N=Nc2ccc(N)cc2C)c(S(N)(=O)=O)c1
IC50 [9]: > 100 µM (active)

Cc1cc(C(=O)NCc2cccnc2)no1
IC50 [4]: > 83.3 µM (inactive) | IC50 [5]: > 109 µM (inactive)

CCn1c(SCC(=O)n2c(C)c(C)c3ccccc32)nnc1-c1ccco1
IC50 [9]: > 100 µM (active)

CCc1nc(C)ccc1OC(=O)C12CC3CC(CC(C3)C1)C2
IC50 [6]: 8.73 µM (not active)

CN(Cc1nc(-c2cnccn2)no1)Cc1[nH]nc2c1CCCC2
IC50 [6]: 7.73 µM (not active)

CCOc1cccc(SCc2noc(C(=O)NCC3CCCO3)c2C(=O)O)c1 (centres undefined)
IC50 [9]: > 100 µM (active)

Cc1cc(Cl)cc(C)c1OCCOCCNCc1ccccc1
IC50 [2]: 128 µM (active) | CC50 [3]: 100 µM (active)

O=C(NCCN1CCN(c2ccccc2F)CC1)c1cccn2c(=O)c3ccccc3nc12
IC50 (H9c2): > 79 µM (inactive)

NC(=O)COc1ccc2oc(=O)cc(-c3cc4ccccc4o3)c2c1
IC50 (H9c2): > 79 µM (inactive)
